According to patent publication US20210395679A1, “IN VITRO CELL CULTURE SYSTEM FOR PRODUCING HEPATOCYTE-LIKE CELLS AND USES THEREOF” (CHILDREN'S HOSPITAL MEDICAL CENTER, priority 2018, published 2021):

Target: T1, MRP4 (Homo sapiens, UniProt O15439)
T1 sequence (O15439 1-1325): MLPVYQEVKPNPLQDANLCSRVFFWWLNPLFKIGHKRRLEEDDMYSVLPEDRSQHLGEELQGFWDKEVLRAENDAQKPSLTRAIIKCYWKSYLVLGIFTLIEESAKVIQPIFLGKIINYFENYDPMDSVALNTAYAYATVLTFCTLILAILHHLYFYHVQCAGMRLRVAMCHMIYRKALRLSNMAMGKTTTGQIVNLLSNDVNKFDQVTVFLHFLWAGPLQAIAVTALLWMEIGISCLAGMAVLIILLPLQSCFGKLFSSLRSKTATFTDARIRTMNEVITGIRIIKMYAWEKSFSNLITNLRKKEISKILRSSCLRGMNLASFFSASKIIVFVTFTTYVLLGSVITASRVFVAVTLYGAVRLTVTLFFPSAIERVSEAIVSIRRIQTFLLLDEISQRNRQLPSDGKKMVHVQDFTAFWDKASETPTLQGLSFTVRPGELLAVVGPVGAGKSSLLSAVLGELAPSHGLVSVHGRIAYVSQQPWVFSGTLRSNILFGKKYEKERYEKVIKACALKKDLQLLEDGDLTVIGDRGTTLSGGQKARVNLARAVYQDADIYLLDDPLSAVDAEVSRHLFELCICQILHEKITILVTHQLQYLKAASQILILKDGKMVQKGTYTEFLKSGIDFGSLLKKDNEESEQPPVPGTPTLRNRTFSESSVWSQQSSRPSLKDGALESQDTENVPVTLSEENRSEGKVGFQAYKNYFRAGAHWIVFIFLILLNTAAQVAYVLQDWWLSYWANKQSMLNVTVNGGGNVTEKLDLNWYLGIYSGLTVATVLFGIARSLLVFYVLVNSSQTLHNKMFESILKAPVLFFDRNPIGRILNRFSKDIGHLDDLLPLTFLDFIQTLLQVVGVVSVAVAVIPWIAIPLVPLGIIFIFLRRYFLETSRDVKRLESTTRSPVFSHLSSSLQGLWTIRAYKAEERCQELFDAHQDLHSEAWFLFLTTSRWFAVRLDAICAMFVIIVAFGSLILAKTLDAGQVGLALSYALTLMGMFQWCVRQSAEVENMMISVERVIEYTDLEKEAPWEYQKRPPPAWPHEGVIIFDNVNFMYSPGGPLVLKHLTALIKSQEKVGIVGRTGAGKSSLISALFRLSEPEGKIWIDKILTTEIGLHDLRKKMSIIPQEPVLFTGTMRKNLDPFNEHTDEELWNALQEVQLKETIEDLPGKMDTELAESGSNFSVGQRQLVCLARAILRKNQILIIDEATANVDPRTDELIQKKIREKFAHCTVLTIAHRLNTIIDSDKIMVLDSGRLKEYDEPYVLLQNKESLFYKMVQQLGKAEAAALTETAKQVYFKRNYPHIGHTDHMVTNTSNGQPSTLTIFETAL
Assay: Wash-out assay of intracellular-to-basolateral D4-TCA export with or without MRP4 inhibitor
Conditions: normal i-Hep, 1 h D4-TCA 10 μM in the lower chamber, fresh medium with or without inhibitor

basolateral export of D4-TCA towards the lower chamber: did not alter the basolateral export
SMILES: Cn1c(CSc2nc3ccccc3s2)n[nH]c1=S [Ceefourin1]
